# Reference: paper PMC12865225 (Clinical and Translational Science, 2026)
# How the values were obtained:
# MRP3 = test system: T1, MRP3; assay: Efflux transport assay in MRP3 HEK293 membrane vesicles; assay type: biochemical, human; settings: 5 and 50 µM, 10 min
# T1 construct: expressed in transfected cells; host or cells: HEK293 cells
# OATP1B3 = molecular target: T2, OATP1B3 (Homo sapiens, UniProt Q9NPD5); assay: Uptake transport assay in OATP1B3-expressing HEK293 cells; assay type: cell-based; settings: for transport by OATP1B3: 2 and 50 μM, 10 min; for Km at 2 min: human, HEK293 cells transiently expressing OATP1B3, pH 7.4, uptake; for Km / Vmax (pmol/106 cells/min) OATP1B3: uptake; for Km at 2 min / Km / Vmax (pmol/106 cells/min) OATP1B3: 2 min
# T2 construct: expressed in transfected cells; host or cells: HEK293 (recombinant baculovirus-mediated transduction)
# T2 sequence (Q9NPD5 1-702): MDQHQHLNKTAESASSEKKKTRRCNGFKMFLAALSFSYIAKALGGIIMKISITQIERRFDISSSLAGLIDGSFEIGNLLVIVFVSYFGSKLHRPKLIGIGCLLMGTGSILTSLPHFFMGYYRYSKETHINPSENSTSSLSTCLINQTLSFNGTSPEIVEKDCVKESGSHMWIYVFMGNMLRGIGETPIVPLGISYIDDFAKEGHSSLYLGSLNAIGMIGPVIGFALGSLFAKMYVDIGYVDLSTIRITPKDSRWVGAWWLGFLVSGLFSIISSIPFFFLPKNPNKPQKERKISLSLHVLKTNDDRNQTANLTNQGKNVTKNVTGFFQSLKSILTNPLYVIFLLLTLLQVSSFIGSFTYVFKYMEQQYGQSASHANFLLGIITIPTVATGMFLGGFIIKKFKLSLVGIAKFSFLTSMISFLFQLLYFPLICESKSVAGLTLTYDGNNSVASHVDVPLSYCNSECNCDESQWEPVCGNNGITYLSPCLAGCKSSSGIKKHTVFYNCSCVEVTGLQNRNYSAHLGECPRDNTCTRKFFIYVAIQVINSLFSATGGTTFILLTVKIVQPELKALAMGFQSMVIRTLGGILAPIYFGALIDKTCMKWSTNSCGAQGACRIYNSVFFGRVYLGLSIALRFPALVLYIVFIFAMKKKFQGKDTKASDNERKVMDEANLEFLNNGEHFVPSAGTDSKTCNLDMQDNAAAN
# Method: (§1) The human transporters OATP1B1, OATP1B3, OATP2B1, and OAT1‐OAT4 and a negative control protein (enhanced yellow fluorescent protein, eYFP) were transiently expressed in human embryonic kidney 293 (HEK293) cells by recombinant baculovirus‐mediated transduction. Baculoviruses carrying human genes for the transporters were prepared as reported previously. HEK293 cells were cultured in DMEM containing 10% fetal bovine serum at 37°C and 5% CO2 and passaged two to three times per week. For the transport studies, 0.05 × 10^6 cells for 48‐well plates (OATPs) or 0.06 × 10^6 cells for 24‐well plates (OATs) were seeded onto cell‐culture treated well plates coated with poly‐D‐lysine. After 1 day, cells were transduced to produce recombinant proteins by changing media to DMEM containing 30 μL (48‐well plates) or 60 μL (24‐well plates) of recombinant baculovirus and 3 mM (OATs) or 5 mM (OATPs) sodium butyrate in a total media volume of 500 μL. The cells were cultured for a further 2 days before the transport assays.
# (§2) For the transport studies, media were removed and cells were washed once with warm transport uptake buffer (TP‐buffer—pH 7.4 HBSS with 25 mM HEPES and 4 mM sodium bicarbonate). Each experiment included triplicate (OATP) or duplicate (OAT) samples for every test condition. The uptake was started by removing liquid from wells and applying warm TP‐buffer (200 μL for 24‐well plates or 125 μL for 48‐well plates) containing a test compound to cells. Transport assays were terminated after a pre‐specified incubation time (reported in figure legends) by removing substrate solution and washing cells three times with cold TP‐buffer (300 μL for 48‐well plates and 400 μL for 24‐well plates). For the liquid chromatography mass spectrometry (LC–MS) analysis, compounds were extracted from cells with 125 μL (48‐well plates) or 250 μL (24‐well plates) of an ultrapure‐water solution containing 75% methanol and 0.1% formic acid, shaking at 250 RPM for 30 min. […] Samples were transferred to well plates, centrifuged at 3000 g for 30 min, and transferred to a new well plate for the analysis.
# (§3) Equation (2) (the Michaelis–Menten equation) was fit to the transport kinetic assay data. […] (2) Uptake=Vmax×S/Km+S
# OATP2B1 = molecular target: T3, OATP2B1 (Homo sapiens, UniProt O94956); assay: Uptake transport assay in OATP2B1-expressing HEK293 cells; assay type: cell-based; settings: for transport by OATP2B1: 2 and 50 μM, 10 min; for Vmax (pmol/106 cells/min) OATP2B1: uptake, 2 min
# T3 construct: expressed in transfected cells; host or cells: HEK293 (recombinant baculovirus-mediated transduction)
# T3 sequence (O94956 1-709): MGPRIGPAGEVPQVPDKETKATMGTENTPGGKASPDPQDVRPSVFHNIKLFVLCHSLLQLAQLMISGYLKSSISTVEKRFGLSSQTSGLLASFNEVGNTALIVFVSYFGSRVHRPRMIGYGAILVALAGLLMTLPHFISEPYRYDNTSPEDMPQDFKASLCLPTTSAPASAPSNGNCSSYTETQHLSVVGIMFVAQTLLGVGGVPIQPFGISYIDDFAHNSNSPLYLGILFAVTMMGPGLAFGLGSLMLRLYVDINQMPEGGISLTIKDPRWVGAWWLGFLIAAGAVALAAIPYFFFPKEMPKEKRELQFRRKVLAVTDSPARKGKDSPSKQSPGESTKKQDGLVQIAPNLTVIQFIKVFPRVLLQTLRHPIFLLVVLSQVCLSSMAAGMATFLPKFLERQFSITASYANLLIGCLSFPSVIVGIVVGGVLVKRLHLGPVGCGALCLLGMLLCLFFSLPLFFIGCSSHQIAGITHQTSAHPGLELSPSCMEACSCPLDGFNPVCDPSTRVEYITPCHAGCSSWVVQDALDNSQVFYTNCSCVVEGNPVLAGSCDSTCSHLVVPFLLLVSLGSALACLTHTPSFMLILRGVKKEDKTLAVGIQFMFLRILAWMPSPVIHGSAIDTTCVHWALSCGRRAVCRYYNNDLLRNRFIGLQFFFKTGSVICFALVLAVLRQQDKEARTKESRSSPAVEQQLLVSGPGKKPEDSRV
# Method: as §1, §2, §3
# [1] = cited from earlier work; for Cmax: 1000 mg dose, read-out: total C max; for unbound fraction in plasma: static model input
Structure (SMILES),transport by MRP3 (MRP3),transport by OATP1B3 (OATP1B3),Km at 2 min (OATP1B3) [µM],Km (OATP1B3) [µM],Vmax (pmol/106 cells/min) OATP1B3 (OATP1B3) [pmol/106 cells/min],transport by OATP2B1 (OATP2B1),Vmax (pmol/106 cells/min) OATP2B1 (OATP2B1) [pmol/106 cells/min],Cmax [1] [µM],unbound fraction in plasma [1]
Cc1onc(-c2c(F)cccc2Cl)c1C(=O)N[C@@H]1C(=O)N2[C@@H]1SC(C)(C)[C@@H]2C(=O)O [Flucloxacillin],did not transport,transported,18.3,10 to 18,6.02,transported,74.9,46,0.06
Cc1onc(-c2c(Cl)cccc2Cl)c1C(=O)N[C@@H]1C(=O)N2[C@@H]1SC(C)(C)[C@@H]2C(=O)O [Dicloxacillin],did not transport,transported,2.81,3,2.69,transported,61.5,67,0.02
